In patent US20240384350A1, “METHODS OF TREATING CANCER WITH KINASE INHIBITORS” (BOARD OF REGENTS, THE UNIVERSITY OF TEXAS SYSTEM, priority 2021, published 2024):

Assays:
Assay in all cases: Ba/F3 drug screening, Cell Titer Glo, IC50 Mut/WT
Assay type in all cases: cell-based
[1] = target: T1, EGFR E709K L858R (Homo sapiens, UniProt P00533, E709K/L858R); details: Classical-Like, 72 hours
T1 construct: expressed in transfected cells; host or cells: Ba/F3 cells, retroviral pBabe-Puro vector

[2] = target: T2, EGFR S784F (Homo sapiens, UniProt P00533, S784F); details: Classical-Like, 72 hours
T2 construct: expressed in transfected cells; host or cells: Ba/F3 cells, retroviral pBabe-Puro vector (vector made by GeneScript from EGFR WT)

[3] = target: T3, EGFR L858R/V834L (Homo sapiens, UniProt P00533, L858R/V834L); details: Classical-Like, 72 hours
T3 construct: expressed in transfected cells; host or cells: Ba/F3 cells, retroviral pBabe-Puro vector
Experimental: Data represent the ratio of the IC50 value for a given TKI for cells with a classical-like EGFR mutation to the IC50 value for cells with wildtype EGFR.
(§1) Ba/F3 cell generation, drug screening, and IC50 approximations. Ba/F3 cells were obtained as a gift from Dr. Gordon Mills (MD Anderson Cancer Center), and maintained in RPMI (Sigma) containing 10% FBS, 1% penicillin/streptomycin, and 10 ng/ml recombinant mIL-3 (R&D Biosystems). To establish stable Ba/F3 cell lines, Ba/F3 cells were transduced with retroviruses containing mutant EGFR plasmids for 12-24 hours.
After 48-72 hours of transduction, 2 μg/ml puromycin (Invitrogen) was added to Ba/F3 cell lines in complete RPMI. To select for EGFR positive cell lines, cells were stained with PE-EGFR (Biolegend) and sorted by FACS. After sorting, EGFR positive cells were maintained in RPMI containing 10% FBS, 1% penicillin/streptomycin, and 1 ng/ml EGF to support cell viability. […] Shortly, cells were plated in 384-well plates (Greiner Bio-One) at 2000-3000 cells per well in technical triplicate. Seven different concentrations of TKIs or DMSO vehicle were added to reach a final volume of 40 μL per well. After 72 hours, 11 μL of Cell Titer Glo (Promega) was added to each well. Plates were incubated for a minimum of 10 minutes, and bioluminescence was determined using a FLUOstar OPTIMA plate reader (BMG LABTECH). Raw bioluminescence values were normalized to DMSO control treated cells, and values were plotted in GraphPad Prism. […] Drug screens were performed in technical triplicate on each plate and either duplicate or triplicate biological replicates.

[4] = target: T4, EGFR S720P (Homo sapiens, UniProt P00533, S720P); details: Classical-Like, 72 hours
T4 construct: expressed in transfected cells; host or cells: Ba/F3 cells, retroviral pBabe-Puro vector (vector made by GeneScript from EGFR WT)

[5] = target: T5, EGFR L861Q (Homo sapiens, UniProt P00533, L861Q); details: Classical-Like, 72 hours
T5 construct: expressed in transfected cells; host or cells: Ba/F3 cells, retroviral pBabe-Puro vector

[6] = target: T6, EGFR N771dupN G724S (Homo sapiens, UniProt P00533, DUP771-771/G724S); details: Ex20, 72 hours
T6 construct: expressed in transfected cells; host or cells: Ba/F3 cells, retroviral pBabe-Puro vector (vector made by GeneScript from EGFR G724S, c.2313_2314insAAC)

[7] = target: T7, EGFR Ex19del/T790M/G724S (Homo sapiens, UniProt P00533, DEL746-750/G724S/T790M); details: T790M-like-3S, 72 hours
T7 construct: expressed in transfected cells; host or cells: Ba/F3

[8] = target: T8, EGFR L858R T790M L792H (Homo sapiens, UniProt P00533, L792H/L858R/T790M); details: T790M-like-3S, 72 hours
T8 construct: expressed in transfected cells; host or cells: Ba/F3

[9] = target: T9, EGFR L858R/T790M/L718Q (Homo sapiens, UniProt P00533, L718Q/L858R/T790M); details: T790M-like-3R, 72 hours
T9 construct: expressed in transfected cells; host or cells: Ba/F3
Experimental: Data represent the ratio of the IC50 value for a given TKI for cells with a T790M-like-3R EGFR mutation to the IC50 value for cells with wildtype EGFR.
as §1
After 48-72 hours of transduction, 2 μg/ml puromycin (Invitrogen) was added to Ba/F3 cell lines in complete RPMI. To select for EGFR positive cell lines, cells were stained with PE-EGFR (Biolegend) and sorted by FACS. After sorting, EGFR positive cells were maintained in RPMI containing 10% FBS, 1% penicillin/streptomycin, and 1 ng/ml EGF to support cell viability. […] Shortly, cells were plated in 384-well plates (Greiner Bio-One) at 2000-3000 cells per well in technical triplicate. Seven different concentrations of TKIs or DMSO vehicle were added to reach a final volume of 40 μL per well. After 72 hours, 11 μL of Cell Titer Glo (Promega) was added to each well. Plates were incubated for a minimum of 10 minutes, and bioluminescence was determined using a FLUOstar OPTIMA plate reader (BMG LABTECH). Raw bioluminescence values were normalized to DMSO control treated cells, and values were plotted in GraphPad Prism. […] Drug screens were performed in technical triplicate on each plate and either duplicate or triplicate biological replicates. […] Statistical differences between groups were determined by ANOVA as described in the figure legends.

[10] = target: T10, EGFR E709K G719S (Homo sapiens, UniProt P00533, E709K/G719S); details: Ba/F3 cells, EGFR E709K G719S (PACC), Mut/WT
T10 construct: expressed in transfected cells; host or cells: Ba/F3
Experimental: (§2) Data represent the ratio of the IC50 value for a given TKI for cells with a PACC EGFR mutation to the IC50 value for cells with wildtype EGFR.
as §1
(§3) After 48-72 hours of transduction, 2 μg/ml puromycin (Invitrogen) was added to Ba/F3 cell lines in complete RPMI. To select for EGFR positive cell lines, cells were stained with PE-EGFR (Biolegend) and sorted by FACS. After sorting, EGFR positive cells were maintained in RPMI containing 10% FBS, 1% penicillin/streptomycin, and 1 ng/ml EGF to support cell viability. Drug screening was performed as previously described^41,42. Shortly, cells were plated in 384-well plates (Greiner Bio-One) at 2000-3000 cells per well in technical triplicate. Seven different concentrations of TKIs or DMSO vehicle were added to reach a final volume of 40 μL per well. After 72 hours, 11 μL of Cell Titer Glo (Promega) was added to each well. Plates were incubated for a minimum of 10 minutes, and bioluminescence was determined using a FLUOstar OPTIMA plate reader (BMG LABTECH). Raw bioluminescence values were normalized to DMSO control treated cells, and values were plotted in GraphPad Prism. […] Drug screens were performed in technical triplicate on each plate and either duplicate or triplicate biological replicates.

[11] = target: T11, EGFR L718V (Homo sapiens, UniProt P00533, L718V); details: Ba/F3 cells, EGFR L718V (PACC), Mut/WT
T11 construct: expressed in transfected cells; host or cells: Ba/F3

[12] = target: T12, EGFR G719S (Homo sapiens, UniProt P00533, G719S); details: Ba/F3 cells, EGFR G719S (PACC), Mut/WT
T12 construct: expressed in transfected cells; host or cells: Ba/F3
Experimental: as §2, §1, §3

[13] = target: T13, EGFR G719A/R776C (Homo sapiens, UniProt P00533, G719A/R776C); details: Ba/F3 cells, EGFR G719A/R776C (PACC), Mut/WT
T13 construct: expressed in transfected cells; host or cells: Ba/F3
Experimental: as §2, §1, §3

[14] = target: T14, EGFR L747S (Homo sapiens, UniProt P00533, L747S); details: Ba/F3 cells, EGFR L747S (PACC), Mut/WT
T14 construct: expressed in transfected cells; host or cells: Ba/F3
Experimental: as §2, §1, §3

[15] = target: T15, EGFR K757R (Homo sapiens, UniProt P00533, K757R); details: Ba/F3 cells, EGFR K757R (PACC), Mut/WT
T15 construct: expressed in transfected cells; host or cells: Ba/F3

[16] = target: T16, EGFR S768I (Homo sapiens, UniProt P00533, S768I); details: Ba/F3 cells, EGFR S768I (PACC), Mut/WT
T16 construct: expressed in transfected cells; host or cells: Ba/F3

[17] = target: T17, EGFR S768I/V769L (Homo sapiens, UniProt P00533, S768I/V769L); details: Ba/F3 cells, EGFR S768I/V769L (PACC), Mut/WT
T17 construct: host or cells: Ba/F3

[18] = target: T18, EGFR L858R/L718V (Homo sapiens, UniProt P00533, L718V/L858R); details: Ba/F3 cells, EGFR L858R/L718V (PACC), Mut/WT
T18 construct: host or cells: Ba/F3

[19] = target: T19, EGFR L858R/L792H (Homo sapiens, UniProt P00533, L792H/L858R); details: Ba/F3 cells, EGFR L858R/L792H (PACC), Mut/WT
T19 construct: expressed in transfected cells; host or cells: Ba/F3
Experimental: as §2, §1, §3

[20] = target: T20, EGFR L858R/C797S (Homo sapiens, UniProt P00533, C797S/L858R); details: Ba/F3 cells, EGFR L858R/C797S (PACC), Mut/WT
T20 construct: expressed in transfected cells; host or cells: Ba/F3
Experimental: as §2, §1, §3

[21] = target: T21, EGFR Ex19del/C797S (Homo sapiens, UniProt P00533, C797S/DEL746-750); details: Ba/F3 cells, EGFR Ex19del/C797S (PACC), Mut/WT
T21 construct: expressed in transfected cells; host or cells: Ba/F3
Experimental: as §2, §1, §3

[22] = target: T22, EGFR Ex19del L718Q (Homo sapiens, UniProt P00533, DEL746-750/L718Q); details: Ba/F3 cells, EGFR Ex19del L718Q (PACC), Mut/WT
T22 construct: expressed in transfected cells; host or cells: Ba/F3

Row | SMILES | ratio of IC50 for cells with mutant EGFR to IC50 for cells with wildtype EGFR (Mut/WT) [1] | ratio of IC50 for cells with mutant EGFR to IC50 for cells with wildtype EGFR (Mut/WT) [2] | ratio of IC50 for cells with mutant EGFR to IC50 for cells with wildtype EGFR (Mut/WT) [3] | ratio of IC50 for cells with mutant EGFR to IC50 for cells with wildtype EGFR (Mut/WT) [4] | ratio of IC50 for cells with mutant EGFR to IC50 for cells with wildtype EGFR (Mut/WT) [5] | ratio of IC50 for cells with mutant EGFR to IC50 for cells with wildtype EGFR (Mut/WT) [6] | ratio of IC50 for cells with mutant EGFR to IC50 for cells with wildtype EGFR (Mut/WT) [7] | ratio of IC50 for cells with mutant EGFR to IC50 for cells with wildtype EGFR (Mut/WT) [8] | ratio of IC50 for cells with mutant EGFR to IC50 for cells with wildtype EGFR (Mut/WT) [9] | ratio of the IC50 value for cells with a PACC EGFR mutation to the IC50 value for cells with wildtype EGFR [10] | ratio of the IC50 value for cells with a PACC EGFR mutation to the IC50 value for cells with wildtype EGFR [11] | ratio of the IC50 value for cells with a PACC EGFR mutation to the IC50 value for cells with wildtype EGFR [12] | ratio of the IC50 value for cells with a PACC EGFR mutation to the IC50 value for cells with wildtype EGFR [13] | ratio of the IC50 value for cells with a PACC EGFR mutation to the IC50 value for cells with wildtype EGFR [14] | ratio of the IC50 value for cells with a PACC EGFR mutation to the IC50 value for cells with wildtype EGFR [15] | ratio of the IC50 value for cells with a PACC EGFR mutation to the IC50 value for cells with wildtype EGFR [16] | ratio of the IC50 value for cells with a PACC EGFR mutation to the IC50 value for cells with wildtype EGFR [17] | ratio of the IC50 value for cells with a PACC EGFR mutation to the IC50 value for cells with wildtype EGFR [18] | ratio of the IC50 value for cells with a PACC EGFR mutation to the IC50 value for cells with wildtype EGFR [19] | ratio of the IC50 value for cells with a PACC EGFR mutation to the IC50 value for cells with wildtype EGFR [20] | also measured
1 | C=CC(=O)Nc1cc(Nc2ncc(C(=O)OC(C)C)c(-c3cn(C)c4ccccc34)n2)c(OC)cc1N(C)CCN(C)C [TAK-788 (mobocertinib), mobocertinib] | 0.008356 | 0.01487 | 0.006056 | 0.111 | 0.8467 | 1.553 | 3.12 | 3.326 | 149.2 | 2.046 | 39.29 | 2.056 | 0.8144 | 2.299 | 1.563 | 0.7766 | 0.04994 | 3.491 | 0.0457 | 57.42 | ratio of the IC50 value for cells with a PACC EGFR mutation to the IC50 value for cells with wildtype EGFR [21]: 43.27; ratio of the IC50 value for cells with a PACC EGFR mutation to the IC50 value for cells with wildtype EGFR [22]: 1.286
2 | C=CC(=O)Nc1cc(Nc2nccc(-c3c[nH]c4ccccc34)n2)c(OC)cc1N(C)CCN(C)C [AZ5104] | 0.1151 | 0.01428 | 0.4038 | 0.009841 | 0.5871 | 1.826 | 1.673 | 0.5871 | 29.86 | 0.7973 | 2.622 | 0.3756 | 0.2136 | 4.201 | 0.1894 | 1.361 | 0.599 | 1.64 | 4.408 | 119.2 | ratio of the IC50 value for cells with a PACC EGFR mutation to the IC50 value for cells with wildtype EGFR [21]: 49.96; ratio of the IC50 value for cells with a PACC EGFR mutation to the IC50 value for cells with wildtype EGFR [22]: 1.487
